Laboratory results from patent US10835500B2, “Medicament for accelerated wound healing” (Symrise AG, priority 2014, dated 2020).

Molecular target: T1, OR2AT4 (human olfactory receptor, endogenously expressed in HaCaT cells) (Homo sapiens, UniProt A6NND4)
T1 construct: OR2AT4, endogenous, HaCaT cells, calcium; endogenous in cells; host or cells: HaCaT cells
T1 sequence (A6NND4 1-320): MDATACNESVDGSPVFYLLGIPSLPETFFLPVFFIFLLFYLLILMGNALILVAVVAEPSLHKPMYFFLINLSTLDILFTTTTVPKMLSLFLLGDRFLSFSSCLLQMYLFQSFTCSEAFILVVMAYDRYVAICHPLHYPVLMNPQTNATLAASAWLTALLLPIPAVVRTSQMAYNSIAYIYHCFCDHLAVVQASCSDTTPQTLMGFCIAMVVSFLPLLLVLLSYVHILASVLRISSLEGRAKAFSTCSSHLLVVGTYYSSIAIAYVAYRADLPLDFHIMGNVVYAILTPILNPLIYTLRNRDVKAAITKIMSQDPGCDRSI
Test: Calcium imaging, dose-dependent activation of HaCaT cells by Sandalore, fourth application (FIG. 9D)
Format: cell-based
Conditions: HaCaT keratinocytes, endogenous OR2AT4, intracellular calcium signal amplitude, 0.0125-10 mM
Source text: A method established at the Department of Cell Physiology of Ruhr University Bochum for deorphanization studies is calcium imaging, in which activation of an OR by an odorant is visualized by a change in the intracellular calcium concentration of transfected cells using a fluorescent dye [cf. Wetzel et al. in: J. Neurosci. 19, pp. 7426-7433 (1999); Spehr et al. in: Science 299, pp. 2054-2058 (2003); Neuhaus et al. in: J. Biol. Chem. 284, pp. 16218-16225 (2009)]. In this method, the Hana3A cells are briefly (20 s) stimulated with an odorant and selected for odorant screenings of high concentrations (up to 1 mM) in order to confirm activation of ORs weakly expressed in Hana3A cells.
For detection of OR2AT4 at the transcript level, RNA of various skin cell types and skin biopsy specimens was isolated, and RT-PCR was carried out. Transcripts of OR2AT4 were detected in human primary keratinocytes of various differentiation stages, HaCaT cells, and human skin biopsy specimens (full thickness skin) (FIG. 6). […] In contrast, no expression of the receptor was detected in adipocytes or fibroblasts (FIG. 6, center). […]
Effect of the OR2AT4 ligand Sandalore® on intracellular calcium concentration of cultivated keratinocytes. […] Right: Quantitative evaluation of calcium signals in 4-time application of Sandalore® (500 μM). […]

CC1=CCC(CCC(C)C(C)O)C1(C)C (stereo not shown) [Sandalore]
EC50: 110 µM
